Source: PubChem BioAssay (NCI)
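Test compounds were applied to cells in 96-well plates for 48 hours at 5 doses. TGI is the concentration that stops growth completely.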

What was measured:
Test in all cases: NCI anticancer screen, dose series, 48 h
BT-549 breast = test system: BT-549 breast
UACC-257 melanoma = test system: UACC-257 melanoma
MALME-3M melanoma = test system: MALME-3M melanoma
SN12C renal = test system: SN12C renal
HT29 colon = test system: HT29 colon
SK-MEL-28 melanoma = test system: SK-MEL-28 melanoma
SNB-19 CNS = test system: SNB-19 CNS
RPMI-8226 leukemia = test system: RPMI-8226 leukemia
PC-3 prostate = test system: PC-3 prostate
OVCAR-8 ovarian = test system: OVCAR-8 ovarian

Row | Compound | TGI (BT-549 breast) [µM] | TGI (UACC-257 melanoma) [µM] | TGI (MALME-3M melanoma) [µM] | TGI (SN12C renal) [µM] | TGI (HT29 colon) [µM] | TGI (SK-MEL-28 melanoma) [µM] | TGI (SNB-19 CNS) [µM] | TGI (RPMI-8226 leukemia) [µM] | TGI (PC-3 prostate) [µM] | TGI (OVCAR-8 ovarian) [µM]
1 | Cc1ccc(C(=O)N/N=C2/C(=O)c3c4ccccc4cc4cccc2c34)cc1 | > 100 | > 100 | 44.4 | 76.5 | 97.5 | 97.4 | > 89.8 | > 87.1 | > 100 | > 100
2 | O=C(Nc1ccc2cc3ccccc3cc2c1)c1cc2c(cc1Cl)Sc1nccn1S2(=O)=O | > 100 | > 100 | > 100 | > 100 | > 100 | > 100 | > 100 | > 100 | 52.6 | > 100
3 | COc1cc(S(=O)(=O)Nc2ccc(-c3csc(N4C(=O)C(Cl)C4c4cccs4)n3)cc2)ccc1Cl (stereo not given) | > 100 | > 100 | > 100 | > 100 | > 100 | > 100 | > 100 | > 100 | > 100 | > 100
4 | N#Cc1c(-c2ccc([N+](=O)[O-])cc2)cc(-c2ccc(Nc3ccnc4cc(Cl)ccc34)cc2)nc1N | > 100 | 62.3 | 39.9 | 17.6 | 8.86 | > 100 | 47.4 | 15 | 37.4 | > 23.3
5 | Cc1cc(C)nc(NS(=O)(=O)c2ccc(NC(=O)c3cc([N+](=O)[O-])cc([N+](=O)[O-])c3)cc2)n1 | > 100 | > 100 | > 100 | > 100 | > 100 | > 100 | > 100 | > 100 | > 100 | > 100
6 | C=CCCC(=O)C(=[N+]=[N-])C(=O)CCC(=O)c1ccccc1 | > 10 | > 10 | > 10 | > 10 | > 10 | > 10 | > 10 | > 10 | > 10 | > 10
7 | CC1(C)OC2OC(COC(=O)c3ccc(C#N)cc3)C3OC(C)(C)OC3C2O1 (stereo not given) | > 75 | > 75 | > 75 | > 75 | > 75 | > 75 | > 75 | > 75 | > 75 | > 75
8 | COc1cc(OC)c(C2(c3c(OC(C)C)c(=O)c3=O)SCCCS2)cc1OC | > 100 | > 100 | > 100 | > 100 | > 100 | > 100 | > 100 | > 100 | > 100 | > 100
9 | O=C(C1OC1c1cccc([N+](=O)[O-])c1)C12CC3CC(CC(C3)C1)C2 (stereo not given) | 12.6 | 25.4 | 27.9 | 13.2 | 13 | 25.6 | 20.5 | 6.18 | 16.1 | 5.92
10 | NC(N)=N/N=C/c1c(-c2cc([N+](=O)[O-])c(Cl)cc2Cl)nc2n1CCS2 | 9.7 | 54.2 | 57.9 | > 100 | 27.5 | 22.2 | 16.5 | > 100 | > 100 | > 100
11 | O=C1NC(=Nc2ccccc2Cl)N/C1=C\c1ccc(Cl)cc1Cl | > 100 | > 100 | > 100 | 73.6 | > 100 | > 100 | > 100 | > 100 | > 100 | > 100
12 | CCNC(=S)NNC(=O)CSc1nc2ccc(I)cc2c(=O)n1Cc1ccccc1 | > 100 | > 87.1 | > 67.8 | > 100 | > 100 | > 100 | > 100 | > 100 | > 100 | > 70.4
13 | Cc1cc(NS(=O)(=O)c2ccc(Nc3c4ccccc4nc4c(C(=O)NCCO)cccc34)cc2)no1 | 40.3 | > 100 | 70.4 | > 100 | 78.8 | > 100 | > 100 | 79.3 | > 100 | > 100
14 | Cc1ccc(SCC(OCn2cnc3c(Cl)nc(N)nc32)[C@H](C)F)cc1 (stereo not given in full) | > 100 | > 100 | > 100 | > 100 | > 100 | > 100 | > 100 | > 100 | > 100 | > 100
